From publication PMC10467532, “Design, synthesis, and biological evaluation of thiazole/thiadiazole carboxamide scaffold-based derivatives as potential c-Met kinase inhibitors for cancer treatment” (Journal of Enzyme Inhibition and Medicinal Chemistry, 2023)

How the values were obtained:
[1] = test system: HUVEC; assay: MTT cytotoxicity assay, normal HUVEC cells; settings: Homo sapiens, 48 h, read-out: IC50 HUVEC
Experimental: (§1) MTT assay was used to determine the cytotoxic activity of target compounds against different cell lines. […] Then, the cells were treated with five doses of test compounds (pre-dissolved in DMSO), and 0.1% DMSO was used as a negative control. […] The results expressed as IC50 were the average of three determinations calculated by using the Bacus Laboratories Incorporated Slide Scanner (Bliss) software.

[2] = test system: FHC; assay: MTT cytotoxicity assay, normal FHC cells; settings: Homo sapiens, 48 h, read-out: IC50 FHC
Experimental: as §1

[3] = test system: A549; assay: MTT antiproliferative assay, A549; settings: Homo sapiens, A549, 48 h, read-out: IC50 A549
Experimental: as §1

[4] = test system: HT-29; assay: MTT antiproliferative assay, HT-29; settings: Homo sapiens, HT-29, 48 h, read-out: IC50 HT-29
Experimental: as §1

[5] = molecular target: T1, c-Met (Homo sapiens, UniProt P08581); assay: In vitro c-Met enzymatic assay (HTRF); assay type: biochemical; settings: for IC50: HTRF assay, mean ± SD, triplicate, read-out: IC50 against c-Met; for fold loss of c-Met inhibitory activity compared to 51w: ratio of c-Met IC50 to that of 51w
T1 construct: purchased Invitrogen (Waltham, MA)
T1 sequence (P08581 25-1390): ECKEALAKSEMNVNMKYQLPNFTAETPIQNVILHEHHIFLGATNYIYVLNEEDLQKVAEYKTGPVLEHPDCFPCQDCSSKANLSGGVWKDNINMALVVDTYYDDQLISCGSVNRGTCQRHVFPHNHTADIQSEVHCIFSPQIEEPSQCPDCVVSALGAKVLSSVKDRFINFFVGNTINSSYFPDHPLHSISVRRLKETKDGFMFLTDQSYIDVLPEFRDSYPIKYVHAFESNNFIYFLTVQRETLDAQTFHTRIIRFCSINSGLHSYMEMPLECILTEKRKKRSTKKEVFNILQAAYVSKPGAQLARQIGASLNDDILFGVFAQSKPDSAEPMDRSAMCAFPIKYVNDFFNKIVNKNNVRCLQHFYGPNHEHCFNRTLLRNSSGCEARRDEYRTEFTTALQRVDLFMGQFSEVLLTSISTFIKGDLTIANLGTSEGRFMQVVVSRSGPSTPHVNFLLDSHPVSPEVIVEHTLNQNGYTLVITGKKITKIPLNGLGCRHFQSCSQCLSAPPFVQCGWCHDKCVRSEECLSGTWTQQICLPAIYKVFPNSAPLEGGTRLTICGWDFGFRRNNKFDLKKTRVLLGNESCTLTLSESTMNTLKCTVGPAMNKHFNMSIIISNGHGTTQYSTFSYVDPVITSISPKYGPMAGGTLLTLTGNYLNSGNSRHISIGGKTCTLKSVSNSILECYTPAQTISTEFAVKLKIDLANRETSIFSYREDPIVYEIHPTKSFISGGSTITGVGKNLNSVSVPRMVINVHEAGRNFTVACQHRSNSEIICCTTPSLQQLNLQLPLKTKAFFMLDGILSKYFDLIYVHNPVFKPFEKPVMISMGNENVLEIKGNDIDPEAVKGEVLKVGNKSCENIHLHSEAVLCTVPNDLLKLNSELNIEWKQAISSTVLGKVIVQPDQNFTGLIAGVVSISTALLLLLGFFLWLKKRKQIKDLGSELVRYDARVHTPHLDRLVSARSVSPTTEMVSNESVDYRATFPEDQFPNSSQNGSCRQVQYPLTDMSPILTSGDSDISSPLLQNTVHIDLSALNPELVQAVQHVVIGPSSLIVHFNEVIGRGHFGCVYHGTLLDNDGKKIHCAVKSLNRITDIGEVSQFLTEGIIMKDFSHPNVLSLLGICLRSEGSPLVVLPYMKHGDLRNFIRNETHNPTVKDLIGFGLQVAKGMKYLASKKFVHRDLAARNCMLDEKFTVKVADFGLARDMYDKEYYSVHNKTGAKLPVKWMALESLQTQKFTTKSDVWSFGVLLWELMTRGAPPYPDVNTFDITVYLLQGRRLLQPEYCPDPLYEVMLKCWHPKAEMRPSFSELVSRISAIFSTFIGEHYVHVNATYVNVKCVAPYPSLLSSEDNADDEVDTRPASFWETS
Experimental: Inhibition of target compounds on c-Met kinase activity was measured by using the homogeneous time-resolved fluorescence (HTRF) assay.
The tyrosine kinases inhibitory activities of target compounds were evaluated in 384-well microtiter plates using purified kinases purchased from Invitrogen (Waltham, MA) by homogeneous time-resolved fluorescence (HTRF) assay. The HTRF KinEASE TK kit was performed according to the instructions. After the kinases and test compounds were incubated at 25–30 °C for 5 min, the kinase reactions were initiated by addition of 39 μL of kinase reaction buffer solution and incubated at 25–30 °C for 30 min. The reactions were quenched by addition 10 µL mixed detection solution. […] The inhibition rate (%) was calculated using the following equation: inhibition rate = [(activity of enzyme with tested compound – min)/(max – min)] × 100 (max: the enzyme activity in the presence of enzyme, substrates and cofactors; min: the enzyme activity in the presence of substrates, cofactors and in the absence of enzyme). IC50 value was calculated from the inhibition curve using GraphPad Prism 5.0 software (La Jolla, CA).

[6] = test system: MDA-MB-231; assay: MTT antiproliferative assay, MDA-MB-231; settings: Homo sapiens, MDA-MB-231, 48 h, read-out: IC50 MDA-MB-231
Experimental: as §1

[7] = test system: MKN-45; assay: MTT antiproliferative assay, MKN-45; settings: Homo sapiens, MKN-45, 48 h, read-out: IC50 MKN-45
Experimental: as §1

| SMILES | IC50 [1] [µM] | IC50 [2] [µM] | IC50 [3] [µM] | IC50 [4] [µM] | melting point [°C] | IC50 [5] [µM] | fold loss of c-Met inhibitory activity compared to 51w [5] [fold] | IC50 [6] [µM] | IC50 [7] [µM] |
| --- | --- | --- | --- | --- | --- | --- | --- | --- | --- |
| O=C(Nc1ccc(Oc2ccnc(Cl)c2)c(F)c1)c1nc(-c2ccc3ccccc3c2)cs1 [Compound 51ai, N-(4-((2-Chloropyridin-4-yl)oxy)-3-fluorophenyl)-4-(naphthalen-2-yl)thiazole-2-carboxamide] | > 100 | > 100 | 15.3 ± 2.81 | 21.5 ± 1.58 | 182 to 184 | 0.0614 ± 0.00458 | 2.6 | 30.3 ± 2.16 | 6.12 ± 1.38 |
| COc1cc2nccc(Oc3ccc(NC(=O)c4ncc(-c5ccccc5)s4)cc3)c2cc1OC [Compound 51g, N-(4-((6,7-Dimethoxyquinolin-4-yl)oxy)phenyl)-5-phenylthiazole-2-carboxamide] | 48.4 ± 2.54 | 54.5 ± 3.25 | 17.4 ± 2.23 | 23.4 ± 1.58 | 260 to 262 | 0.0394 ± 0.00325 |  | 32.8 ± 2.23 | 6.21 ± 0.85 |
| COc1cc2nccc(Oc3ccc(NC(=O)c4nc(-c5ccccc5)cs4)cc3Cl)c2cc1OC [Compound 51l, N-(3-Chloro-4-((6,7-dimethoxyquinolin-4-yl)oxy)phenyl)-4-phenylthiazole-2-carboxamide] | 40.9 ± 2.32 | 51.6 ± 3.96 | 13.2 ± 2.41 | 20.9 ± 3.56 | 146 to 148 | 0.0319 ± 0.00451 |  | 32.1 ± 2.54 | 6.23 ± 0.72 |
| O=C(Nc1ccc(Oc2ccnc(Cl)c2)c(F)c1)c1nc(-c2ccc(Cl)c(Cl)c2)cs1 [Compound 51ah, N-(4-((2-Chloropyridin-4-yl)oxy)-3-fluorophenyl)-4-(3,4-dichlorophenyl)thiazole-2-carboxamide] | 12.4 ± 0.85 | 20.4 ± 1.86 | 3.17 ± 0.51 | 2.78 ± 0.49 | 195 to 197 | 0.00926 ± 0.00134 |  | 7.29 ± 1.22 | 0.53 ± 0.42 |
| COc1cc2nccc(Oc3ccc(NC(=O)c4nc(-c5ccccc5)cs4)c(Cl)c3)c2cc1OC [Compound 51k, N-(2-Chloro-4-((6,7-dimethoxyquinolin-4-yl)oxy)phenyl)-4-phenylthiazole-2-carboxamide] | > 100 | > 100 | 14.5 ± 1.64 | 23.4 ± 4.32 | 201 to 203 | 0.033 ± 0.00266 |  | 33.3 ± 4.21 | 6.87 ± 0.86 |
| O=C(Nc1ccc(Oc2ccnc(Cl)c2)c(F)c1)c1nc(-c2ccc(Cl)cc2)cs1 [Compound 51ad, 4-(4-Chlorophenyl)-N-(4-((2-chloropyridin-4-yl)oxy)-3-fluorophenyl)thiazole-2-carboxamide] | 18.5 ± 2.04 | 26.5 ± 1.28 | 6.75 ± 0.55 | 8.04 ± 0.93 | 167 to 169 | 0.0178 ± 0.00182 |  | 15.2 ± 1.46 | 1.74 ± 0.23 |
| O=C(Nc1ccc(Oc2ncnc3sccc23)c(F)c1)c1nc(-c2ccccc2)cs1 [Compound 51u, N-(3-Fluoro-4-(thieno[2,3-d]pyrimidin-4-yloxy)phenyl)-4-phenylthiazole-2-carboxamide] | 38.8 ± 3.53 | 48.2 ± 5.04 | 16.8 ± 2.28 | 26.4 ± 3.22 | 78 to 80 | 0.0404 ± 0.00553 |  | 35.9 ± 2.52 | 5.53 ± 1.26 |
| O=C(Nc1ccc(Oc2ccnc(Cl)c2Cl)c(F)c1)c1nc(-c2ccc(F)c(F)c2)cs1 [Compound 51an, N-(4-((2,3-Dichloropyridin-4-yl)oxy)-3-fluorophenyl)-4-(3,4-difluorophenyl)thiazole-2-carboxamide] | 4.83 ± 0.69 | 9.54 ± 1.26 | 1.32 ± 0.35 | 0.94 ± 0.27 | 156 to 158 | 0.00373 ± 0.00062 |  | 4.65 ± 0.93 | 0.15 ± 0.07 |
| COc1cc2nccc(Oc3ccc(NC(=O)c4nc(-c5ccccc5)cs4)c(F)c3)c2cc1OC [Compound 51i, N-(4-((6,7-Dimethoxyquinolin-4-yl)oxy)-2-fluorophenyl)-4-phenylthiazole-2-carboxamide] | 44.3 ± 5.64 | 60.2 ± 5.33 | 15.6 ± 1.86 | 22.9 ± 2.43 | 112 to 114 | 0.0312 ± 0.00416 |  | 35.5 ± 4.62 | 5.35 ± 0.84 |
| O=C(Nc1ccc(Oc2ccnc(Cl)c2)c(F)c1)c1nc(-c2ccc(F)cc2)cs1 [Compound 51aa, N-(4-((2-Chloropyridin-4-yl)oxy)-3-fluorophenyl)-4-(4-fluorophenyl)thiazole-2-carboxamide] | 15.3 ± 2.16 | 24.6 ± 4.23 | 4.83 ± 0.72 | 4.36 ± 0.38 | 150 to 152 | 0.0156 ± 0.00243 |  | 11.7 ± 1.39 | 0.95 ± 0.18 |
| O=C(Nc1ccc(Oc2ncnc3ccsc23)c(F)c1)c1nc(-c2ccccc2)cs1 [Compound 51s, N-(3-Fluoro-4-(thieno[3,2-d]pyrimidin-4-yloxy)phenyl)-4-phenylthiazole-2-carboxamide] | 43.4 ± 3.65 | 65.5 ± 5.56 | 18.4 ± 2.33 | 25.6 ± 1.76 | 95 to 97 | 0.0433 ± 0.00625 |  | 32.8 ± 2.7 | 6.05 ± 0.94 |
| COc1cc2nccc(Oc3ccc(NC(=O)c4nc(-c5ccccc5)cs4)cc3F)c2cc1OC [Compound 51j, N-(4-((6,7-Dimethoxyquinolin-4-yl)oxy)-3-fluorophenyl)-4-phenylthiazole-2-carboxamide] | 45.6 ± 5.12 | > 100 | 13.8 ± 1.76 | 19.6 ± 2.89 | 90 to 92 | 0.0295 ± 0.00342 |  | 32.3 ± 2.78 | 4.58 ± 0.75 |
| COc1cc2ncnc(Oc3ccc(NC(=O)c4nc(-c5ccccc5)cs4)cc3F)c2cc1OC [Compound 51o, N-(4-((6,7-Dimethoxyquinazolin-4-yl)oxy)-3-fluorophenyl)-4-phenylthiazole-2-carboxamide] | 36.6 ± 4.23 | 50.3 ± 3.58 | 12.2 ± 1.63 | 18.7 ± 3.13 | 115 to 117 | 0.0296 ± 0.00384 |  | 29.6 ± 3.54 | 4.23 ± 0.96 |
| O=C(Nc1ccc(Oc2ccnc(Cl)c2)c(F)c1)c1nc(-c2cccs2)cs1 [Compound 51aj, N-(4-((2-chloropyridin-4-yl)oxy)-3-fluorophenyl)-4-(thiophen-2-yl)thiazole-2-carboxamide] | 52.3 ± 3.74 | > 100 | 11.5 ± 2.17 | 17.5 ± 2.44 | 184 to 186 | 0.0495 ± 0.00536 | 2.1 | 25.9 ± 3.41 | 4.55 ± 0.91 |
| COc1cc2nccc(Oc3ccc(NC(=O)c4nnc(-c5ccc(F)cc5)s4)cc3)c2cc1OC [Compound 51d, N-(4-((6,7-Dimethoxyquinolin-4-yl)oxy)phenyl)-5-(4-fluorophenyl)-1,3,4-thiadiazole-2-carboxamide] | 52.4 ± 3.85 | 68.6 ± 4.83 | 19 ± 2.46 | 24.6 ± 1.87 | 136 to 138 | 0.0415 ± 0.00276 |  | 33.6 ± 4.35 | 6.65 ± 0.94 |
| COc1ccc(-c2csc(C(=O)Nc3ccc(Oc4ccnc(Cl)c4)c(F)c3)n2)cc1 [Compound 51y, N-(4-((2-Chloropyridin-4-yl)oxy)-3-fluorophenyl)-4-(4-methoxyphenyl)thiazole-2-carboxamide] | 32.4 ± 1.98 |  | 9.28 ± 1.85 | 14 ± 2.26 | 191 to 193 | 0.0367 ± 0.00297 |  | 28.5 ± 2.35 | 3.22 ± 0.86 |
| COc1cc2nccc(Oc3ccc(NC(=O)c4nc(-c5ccccc5)cs4)cc3C)c2cc1OC [Compound 51n, N-(4-((6,7-Dimethoxyquinolin-4-yl)oxy)-3-methylphenyl)-4-phenylthiazole-2-carboxamide] | > 100 | > 100 | 17.5 ± 2.25 | 24.4 ± 2.14 | 136 to 138 | 0.0456 ± 0.00603 |  |  | 7.21 ± 0.95 |
| O=C(Nc1ccc(Oc2ccnc(Cl)c2)c(F)c1)c1nc(-c2ccc(C(F)(F)F)cc2)cs1 [Compound 51ag, N-(4-((2-Chloropyridin-4-yl)oxy)-3-fluorophenyl)-4-(4(trifluoromethyl)phenyl)thiazole-2-carboxamide] | 43.2 ± 3.53 |  | 12.4 ± 2.85 | 20.4 ± 3.02 | 212 to 214 | 0.0394 ± 0.00525 |  | 30.6 ± 2.64 | 5.84 ± 1.21 |
| COc1cc2nccc(Oc3ccc(NC(=O)c4nc(-c5ccc(F)cc5)cs4)cc3)c2cc1OC [Compound 51f, N-(4-((6,7-Dimethoxyquinolin-4-yl)oxy)phenyl)-4-(4-fluorophenyl)thiazole-2-carboxamide] | 45.5 ± 3.83 |  | 14.7 ± 3.27 | 22.4 ± 1.94 | 84 to 86 | 0.0291 ± 0.00353 |  | 31.8 ± 2.56 | 4.95 ± 0.82 |
